# Laboratory results taken from patent publication US7875452B2, “Non-desensitizing mutant of the transient receptor potential TRPM5 ion channel” (Redpoint Bio Corporation, priority 2007, dated 2011).
# How the values were obtained:
# Format in all cases: cell-based
# [1] = biological target: T1, non-desensitizing (His)6-hTRPM5 ion channel (Homo sapiens, UniProt Q9NZQ8); test: FMP dye membrane potential assay in cells transfected with non-desensitizing (His)6-hTRPM5; conditions: 10 μM ATP, HEK 293 cells transiently transfected with (His)6-hTRPM5, FIG. 3
# T1 construct: expressed in transfected cells; host or cells: HEK 293 cells (ATCC), transient transfection with pcDNA-DEST-26-(His)6-hTRPM5
# T1 sequence (Q9NZQ8 with tags, fused parts or gaps): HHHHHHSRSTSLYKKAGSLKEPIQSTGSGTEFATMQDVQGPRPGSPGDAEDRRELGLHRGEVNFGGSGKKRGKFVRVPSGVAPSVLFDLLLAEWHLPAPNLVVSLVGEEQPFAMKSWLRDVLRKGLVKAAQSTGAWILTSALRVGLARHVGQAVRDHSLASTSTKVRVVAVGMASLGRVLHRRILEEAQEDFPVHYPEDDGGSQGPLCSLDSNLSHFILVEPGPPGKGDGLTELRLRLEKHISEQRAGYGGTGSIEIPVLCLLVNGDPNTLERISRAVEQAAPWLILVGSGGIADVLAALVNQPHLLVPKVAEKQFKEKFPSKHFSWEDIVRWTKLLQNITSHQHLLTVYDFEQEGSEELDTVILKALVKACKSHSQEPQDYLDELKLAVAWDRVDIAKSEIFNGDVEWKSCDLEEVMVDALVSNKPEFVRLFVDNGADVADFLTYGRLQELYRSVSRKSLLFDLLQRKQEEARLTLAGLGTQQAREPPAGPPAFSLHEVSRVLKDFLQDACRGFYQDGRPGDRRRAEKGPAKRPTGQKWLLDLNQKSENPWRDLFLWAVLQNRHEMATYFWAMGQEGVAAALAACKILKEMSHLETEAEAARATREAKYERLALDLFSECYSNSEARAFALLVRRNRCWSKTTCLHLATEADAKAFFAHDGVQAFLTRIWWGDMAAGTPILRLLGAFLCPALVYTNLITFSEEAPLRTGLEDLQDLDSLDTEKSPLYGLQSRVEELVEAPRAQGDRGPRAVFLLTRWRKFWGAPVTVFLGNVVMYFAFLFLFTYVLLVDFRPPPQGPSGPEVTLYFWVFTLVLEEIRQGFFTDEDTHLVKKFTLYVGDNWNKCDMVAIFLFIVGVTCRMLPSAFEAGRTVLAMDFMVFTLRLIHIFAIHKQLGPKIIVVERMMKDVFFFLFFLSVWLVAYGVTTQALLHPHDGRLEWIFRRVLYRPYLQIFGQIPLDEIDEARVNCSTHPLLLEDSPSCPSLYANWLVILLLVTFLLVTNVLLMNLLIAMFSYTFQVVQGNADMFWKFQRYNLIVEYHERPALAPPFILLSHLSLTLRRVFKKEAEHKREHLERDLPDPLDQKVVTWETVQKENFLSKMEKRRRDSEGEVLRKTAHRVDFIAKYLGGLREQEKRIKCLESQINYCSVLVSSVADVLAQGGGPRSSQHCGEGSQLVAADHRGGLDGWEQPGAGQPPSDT
# Experimental: (§1) 5.0×10^6 HEK 293 cells (ATCC) were plated in a 10 cm culture dish at 37° C. in a CO2 incubator in Dulbecco's Modified Eagle's Medium (DMEM) supplemented with 10% Fetal Bovine Serum (FBS) and Penicillin-Streptomycin Solution. The following day, medium in the culture dish was exchanged with 15 mL of DMEM/10% FBS over a period of 3 hours. Prior to cell transfection, 24 μg of pcDNA-DEST-26-(His)6-hTRPM5 was incubated in a 5 mL polypropylene tube for 5 minutes at room temperature in 1.5 mL of OPTI-MEM media (Invitrogen). In a separate 5 mL polypropylene tube, 42 μL of Lipofectamine™ 2000 (Invitrogen) was incubated for 5 minutes at room temperature in 1.5 mL of OPTI-MEM media. […] Plates were then assayed on a FLIPR Tetra reader as described.
# (§2) 100 μl of the Blue or Red FMP dye (Molecular Devices) was added to each well of plates seeded with HEK cells transiently transfected with pDEST-26™-(His)6-hTRPM 5. […] The plate was read in a FLEXStation™ microplate reader (Molecular Devices) with an excitation of 530 nm and an emission of 565 nm. The fluorescence was monitored for 3 minutes upon exposure of the cells to a calcium activating agent (carbachol, thrombin peptide or ATP). […]
# Cells transfected with non-desensitizing (His)6-hTRPM5 DNA were loaded with FMP dye and then treated with 10 μM ATP and monitored for an increase in cellular fluorescence in the FLEXstation™. […]
# wildtype hTRPM5 = biological target: T2, wildtype hTRPM5 (Homo sapiens, UniProt Q9NZQ8); test: FMP dye membrane potential assay in cells transfected with wildtype hTRPM5; conditions: 10 μM ATP, cells transfected with wildtype hTRPM5, FIG. 3
# T2 construct: the full length hTRPM5 was amplified by PCR using GC Melt; expressed in transfected cells; host or cells: HEK 293 cells
# T2 sequence (Q9NZQ8 1-1165): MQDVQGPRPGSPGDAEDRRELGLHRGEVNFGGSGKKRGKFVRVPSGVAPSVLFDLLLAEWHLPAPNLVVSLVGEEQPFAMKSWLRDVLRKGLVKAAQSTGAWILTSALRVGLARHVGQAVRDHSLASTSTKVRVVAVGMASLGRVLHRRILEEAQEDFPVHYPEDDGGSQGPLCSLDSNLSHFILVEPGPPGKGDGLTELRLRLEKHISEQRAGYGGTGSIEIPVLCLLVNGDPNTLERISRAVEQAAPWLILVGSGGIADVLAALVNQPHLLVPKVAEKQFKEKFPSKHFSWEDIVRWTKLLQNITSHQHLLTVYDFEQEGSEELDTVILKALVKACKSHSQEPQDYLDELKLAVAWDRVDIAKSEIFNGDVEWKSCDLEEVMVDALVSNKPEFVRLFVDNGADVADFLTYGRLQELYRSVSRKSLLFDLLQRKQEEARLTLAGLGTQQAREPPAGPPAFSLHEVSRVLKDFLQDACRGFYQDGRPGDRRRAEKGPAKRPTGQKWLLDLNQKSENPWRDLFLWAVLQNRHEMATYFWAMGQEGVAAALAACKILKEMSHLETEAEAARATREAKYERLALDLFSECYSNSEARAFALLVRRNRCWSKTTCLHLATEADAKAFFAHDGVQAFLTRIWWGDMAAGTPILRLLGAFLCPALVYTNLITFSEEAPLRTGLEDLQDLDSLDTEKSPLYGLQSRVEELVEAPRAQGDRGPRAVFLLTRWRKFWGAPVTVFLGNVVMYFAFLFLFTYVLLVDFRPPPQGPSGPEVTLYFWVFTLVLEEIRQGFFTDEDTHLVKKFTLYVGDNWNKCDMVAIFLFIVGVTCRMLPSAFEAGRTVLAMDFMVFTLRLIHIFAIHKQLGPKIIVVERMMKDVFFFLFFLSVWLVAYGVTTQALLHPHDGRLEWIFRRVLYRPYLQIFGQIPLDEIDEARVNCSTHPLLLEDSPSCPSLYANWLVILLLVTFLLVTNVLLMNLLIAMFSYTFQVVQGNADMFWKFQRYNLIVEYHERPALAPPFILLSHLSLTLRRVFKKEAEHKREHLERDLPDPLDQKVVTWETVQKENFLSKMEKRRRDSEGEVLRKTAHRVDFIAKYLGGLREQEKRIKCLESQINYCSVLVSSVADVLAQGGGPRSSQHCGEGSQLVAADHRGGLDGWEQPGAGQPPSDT
# Experimental: as §1, with “media. After the 5 minute incubation period, the pcDNA-DEST-26-(His)6-hTRPM5 and Lipofectamine™ 2000 solutions were mixed together and incubated for an additional 20 minutes at room temperature.” for “media.”
# as §2
# [2] = system: cells transfected with PSV3 Neo; test: FMP dye membrane potential assay in sham cells transfected with PSV3 Neo empty vector; conditions: 10 μM ATP, sham control, FIG. 3
# Experimental: 100 μl of the Blue or Red FMP dye (Molecular Devices) was added to each well of plates seeded with HEK cells transiently transfected with pDEST-26™-(His)6-hTRPM 5. The plate was then incubated in a 37° C. /5% CO2 incubator for 1 hour. The plate was read in a FLEXStation™ microplate reader (Molecular Devices) with an excitation of 530 nm and an emission of 565 nm. The fluorescence was monitored for 3 minutes upon exposure of the cells to a calcium activating agent (carbachol, thrombin peptide or ATP).
# Cells transfected with either wildtype hTRPM5 DNA, non-desensitizing (His)6-hTRPM5 DNA or PSV3 Neo were loaded with FMP dye and then treated with 10 μM ATP and monitored for an increase in cellular fluorescence in the FLEXstation™.
structure (smiles),measurement,setting,value
"Nc1ncnc2c1ncn2[C@@H]1O[C@H](COP(=O)(O)OP(=O)(O)OP(=O)(O)O)[C@@H](O)[C@H]1O [ATP, adenosine triphosphate]",time for which fluorescence is observed at significant levels after activation,[1],more than 3 minutes
same,duration of increase in fluorescence (initial activation) before rapid inactivation,wildtype hTRPM5,about 30 seconds
same,membrane potential response (cellular fluorescence) to application,[2],no significant response
